Structures are written as SMILES.

Broadly, the EC50 is the concentration at which the effect is half-maximal. A lower EC50 goes with a more potent agent. In general, Emax refers to the maximal effect, on the per cent scale that the assay sets.

For the experiment, the target named is T1, MC1-R (Homo sapiens, UniProt Q01726).
T1 construct: or, for MC1-R, in HBL cells; endogenous in cells; host or cells: HBL cells
Briefly: Assay for agonist activity: intracellular cAMP accumulation (functional assay). It counts as cell-based. The following applies: functional assays at MC1-R. The procedure: Accumulation of intracellular cAMP is examined as a measure of the ability of the test compounds to elicit a functional response in HEK-293 cells that express MC4-R, or, for MC1-R, in HBL cells. Confluent HEK-293 cells that express recombinant hMC4-R, or HBL cells that express MC1-R, are detached from culture plates by incubation in enzyme-free cell dissociation buffer. Dispersed cells are suspended in Earle's Balanced Salt Solution containing 10 mM HEPES (pH 7.5), 1 mM MgCl2, 1 mM glutamine, 0.5% albumin and 0.3 mM 3-isobutyl-1-methyl-xanthine (IBMX), a phosphodiesterase inhibitor. The cells are plated in 96-well plates at a density of 0.5 x 10^5 cells per well and pre-incubated for 30 minutes. Cells are exposed for 1 hour at 37° C. to test compounds dissolved in DMSO (final DMSO concentration of 1%) at a concentration range of 0.05-5000 nM in a total assay volume of 200 μL. NDP-α-MSH is used as the reference agonist. At the end of the incubation period, cells are disrupted by the addition of 50 μL of lysis buffer (cAMP EIA kit, Amersham) followed by vigorous pipetting. Levels of cAMP in the lysates are determined using a cAMP EIA kit (Amersham). Data analysis is performed by nonlinear regression analysis with Graph-Pad Prism® software. The maximum efficacies of the test compounds are compared to that achieved by the reference melanocortin agonist NDP-α-MSH.
(In general: cAMP levels reflect the balance of adenylyl cyclase and phosphodiesterase activity.)

T1 sequence (Q01726 whole entry): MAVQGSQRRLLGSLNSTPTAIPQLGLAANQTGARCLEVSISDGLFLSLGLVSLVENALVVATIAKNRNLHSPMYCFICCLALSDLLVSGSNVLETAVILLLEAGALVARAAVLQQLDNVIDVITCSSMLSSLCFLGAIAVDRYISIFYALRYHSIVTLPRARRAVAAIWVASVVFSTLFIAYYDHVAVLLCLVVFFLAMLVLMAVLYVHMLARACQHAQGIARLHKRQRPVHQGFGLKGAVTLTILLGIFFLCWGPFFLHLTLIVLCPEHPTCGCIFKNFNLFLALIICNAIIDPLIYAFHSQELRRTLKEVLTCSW

As for `COC(=O)CN1CN(c2ccccc2)C2(CCN(C(=O)[C@@H](Cc3ccc(OC)cc3)NC(=O)CCCCN)CC2)C1=O` [Example 138, {8-[(R)-2-(5-Amino-pentanoylamino)-3-(4-methoxy-phenyl)-propionyl]-4-oxo-1-phenyl-1,3,8-triaza-spiro[4.5]dec-3-yl}-acetic acid methyl ester], the “functional status at MC1-R” value was “partial agonist”. The molecule further came in with an EC50 (HBL cells that express MC1-R, cAMP) of 340 nM. The Emax (maximum efficacy compared to reference agonist NDP-α-MSH) was determined as 44%.

The record behind these values is patent publication US8263608B2, “Melanocortin receptor-specific spiro-piperidine compounds” (Palatin Technologies, Inc., priority 2008, dated 2012).
